Data published in US20220062317A1, “NA+/K+ ATPASE INHIBITORS FOR USE IN THE PREVENTION OR TREATMENT OF METASTASIS” (UNIVERSITÄT BASEL, priority 2018, published 2022).
Entries after “also recorded” stand apart in the source; their conditions may differ. Where a name gives a salt, the structure may show the parent alone.

Assays:
[1] = system: BRx50 human CTC-derived cells; experiment: FDA-approved compound screen for CTC cluster dissociation (high content imaging); type: cell-based; settings: even at lowest concentration tested (0.1 μM)
BR16 CTC-derived cells = experiment: as above; type: cell-based, human; settings: even at lowest concentration tested (0.1 μM), 2 days, hypoxia
Protocol: In order to identify actionable vulnerabilities of CTC clusters, and to test whether the epigenetic and transcriptional features of clustered CTCs are reversible upon cluster dissociation into single cells the following steps were undertaken. First, the expression of all known cell-cell junction (CCJ) components in patient samples obtained from normal breast (TGCA REF), breast cancer (TOGA REF), single CTCs and CTC clusters were assessed (Aceto et al. Cell 2014). While breast cancer cells tend to only partially reduce their CCJ repertoire compared to normal breast cells, CTCs express only a small fraction of CCJ components, likely as a consequence to their increased motility. Yet, CTC clusters retain a higher number of CCJs as compared to single CTCs. […] To this end, 2′486 FDA-approved compounds were evaluated for their ability to dissociate clusters of human breast CTC-derived cells. Cluster dissociation was assessed using a high content screening microscope and comparing cells treated with each individual compound to steady state clustered BR16 cells and 40 μm-filtered BR16 single cell suspension as negative and positive controls, respectively (FIG. 4a). […] For the majority of the 2′486 FDA-approved compounds, when using a 5 μM concentration for 2 days in hypoxic conditions, no detectable reduction in cell viability (>70% viability) nor mean cluster size (>450 μm2) in BR16 CTC-derived cells was observed. […] These compounds include inhibitors of Na^+/K^+ ATPases (n=6), HDACs (n=2), nucleotide biosynthesis (n=5), kinases (n=4), GPCRs (n=2), cholesterol biosynthesis (n=1), nuclear export (n=1), tubulin (n=9), as well as DNA binding compounds (n=8) and antibiotics (n=1).
A library containing 2,486 FDA-approved compounds was purchased from the Nexus Platform ETH Zurich. Each compound was resuspended using CTC medium at a 15 μM concentration and 20 μl were aliquoted in duplicate in a total of 64 Flat Bottom Clear Ultra Low attachment 96-well plates (Corning, Cat #3474).
To reduce cluster size in CTC derived cell lines, a 40 μm cell strainer was used (Corning, Cat #431750). […] Plates were incubated in hypoxia (5% oxygen) for 2 days and then 20 μl were transferred into a 96 well Black/clear Tissue culture treated plate (BD Falcon, Cat #353219) containing 40 μl of D-PBS (Invitrogen, Cat #14190169) and stained for 1 hr at 37° C. with a final concentration of 4 μM Hoechst 34580 (Invitrogen, Cat #H21486), 2 μM TMRM (Invitrogen, Cat #T668) and 4 μM TOTO-3 (Invitrogen, Cat #T3604). For each plate, two positive controls (non-treated cells) and two negative controls (non-treated and […] cells) were included. Z-factors were calculated per individual plate using the following formula: Z′=1−3(σs+σc)/|μs−μc|^3 (σ: standard deviation, μ: mean, s: positive control and c: negative control) (Martin et al., PLoS One 9, e88338, 2014) and ranged between 0.62-0.937. Plates were scanned using Operetta High Content Imaging System (Perkin Elmer) and cluster analysis was performed using Harmony High Content Imaging and Analysis Software (Perkin Elmer).

BR16 xenografts = experiment: BR16 xenograft (mammary fat pad), spontaneous CTC clusters and metastasis; type: in vivo, NSG mice; settings: digoxin 2 mg/kg vs vehicle
Protocol: Blood specimens for CTC analysis were obtained from University Hospital Basel after informed patient consent according to protocol EKNZ BASEC 2016-00067 and EK 321/10, which received ethical approval from the Swiss authorities (EKNZ, Ethics Committee northwest/central Switzerland). An average of 7.5 ml of blood per patient was drawn in EDTA vacutainers. Within 1 hr from blood draw, the blood was processed through Parsortix GEN3D6.5 Cell Separation Cassette (Angle Europe). For mouse studies, blood was retrieved via cardiac puncture and 1 ml of blood was similarly processed through a Parsortix device. Captured CTCs were further stained on Parsortix cassette with EpCAM-AF488 conjugated (CellSignaling, Cat #CST5198), HER2-AF488 (#324410, BioLegend), EGFR-FITC conjugated (GeneTex, Cat #GTX11400) and CD45-BV605 conjugated (Biolegend, Cat #304042 (anti-human); Cat #103140 (anti-mouse)) antibodies. For all other models (xenografts), carrying cancer cells stably expressing a GFP-Luciferase reporter, only anti-CD45 staining was performed, while CTCs were identified based on GFP expression. The number of captured CTCs, including single CTCs, CTC clusters and CTC-WBC clusters, was determined while cells were still in the cassette. CTCs were then released from the cassette in DPBS (#14190169, Gibco) onto ultra-low attachment plates (#3471-COR, Corning). Representative pictures were taken at 40× magnification with Leica DM14000 fluorescent microscope using Leica LAS and analyzed with ImageJ.
For tail vein experiments, NOD SCID Gamma (NSG) mice (Jackson Labs) were injected with 1×10^6 BR16-mCherry cells resuspended in 100 μl D-PBS and monitored with IVIS Lumina II (Perkin Elmer). For CTC xenograft mouse model isolation, 1×10^6 LM2-GFP, 1×10^6 BRx50-GFP or 1×10^6 BR16-GFP cells were resuspended in 100 μl of 50% Cultrex PathClear Reduced Growth Factor Basement Membrane Extract (R&D Biosystems, Cat #3533-010-02) in D-PBS and injected orthotopically in NSG mice. Blood draw was performed 4-5 weeks after tumor onset for LM2 cells, 5-6 months after tumor onset for BR16 and 6-7 months after tumor onset for BRx50 cells.

LM2 xenografts = experiment: LM2 xenograft, spontaneous CTC clusters and metastasis; type: in vivo, NSG mice; settings: LM2 xenograft, digoxin 2 mg/kg vs vehicle

COc1cc2c(c(OC)c1OC)-c1ccc(OC)c(=O)cc1[C@@H](NC(C)=O)CC2 [colchicine]
mean cluster size [1]: significant decrease in mean cluster size | mean cluster size (BR16 CTC-derived cells): significant decrease in mean cluster size

C[C@H]1O[C@@H](O[C@H]2[C@@H](O)C[C@H](O[C@H]3[C@@H](O)C[C@H](O[C@H]4CC[C@@]5(C)[C@H](CC[C@@H]6[C@@H]5C[C@@H](O)[C@]5(C)[C@@H](C7=CC(=O)OC7)CC[C@]65O)C4)O[C@@H]3C)O[C@@H]2C)C[C@H](O)[C@@H]1O [digoxin, Digoxin]
metastasis (metastatic index) (BR16 xenografts): suppresses metastasis | number of CTC clusters (BR16 xenografts): clear decrease | number of CTC-neutrophil clusters (BR16 xenografts): clear decrease | tumor size / tumor growth rate over time (BR16 xenografts): No significant differences are observed; also recorded: no significant difference | formation of CTC clusters (CTC fold change) (LM2 xenografts): reduced the formation | formation of CTC-neutrophil clusters (CTC fold change) (LM2 xenografts): reduced the formation | overall survival (LM2 xenografts): prolonged overall survival | tumor size / tumor growth rate over time (LM2 xenografts): No significant differences are observed; also recorded: no significant difference | overall survival (LM2 xenografts; listed as Digoxin): prolongs overall survival

COc1cc([C@@H]2c3cc4c(cc3[C@H](O)[C@H]3COC(=O)[C@H]23)OCO4)cc(OC)c1OC [podofilox]
mean cluster size [1]: significant decrease in mean cluster size | mean cluster size (BR16 CTC-derived cells): significant decrease in mean cluster size

COc1cc(OC)c(/C=C/S(=O)(=O)Cc2ccc(OC)c(NCC(=O)O)c2)c(OC)c1 [rigosertib]
mean cluster size [1]: significant decrease in mean cluster size | mean cluster size (BR16 CTC-derived cells): significant decrease in mean cluster size

CC[C@]1(O)C[C@H]2CN(CCc3c([nH]c4ccccc34)[C@@](C(=O)OC)(c3cc4c(cc3OC)N(C=O)[C@H]3[C@@](O)(C(=O)OC)[C@H](OC(C)=O)[C@]5(CC)C=CCN6CC[C@]43[C@@H]65)C2)C1 [vincristine sulfate]
mean cluster size [1]: significant decrease in mean cluster size | mean cluster size (BR16 CTC-derived cells): significant decrease in mean cluster size
